target: T1, Human orexin receptor type 2 (Homo sapiens, UniProt O43614); test: Test Example 1: agonist activity for orexin receptor type 2 (aequorin luminescence, intracellular calcium mobilization); conditions: compound 10 μm; CHO cells transiently expressing human orexin receptor type 2 and apoaequorin; relative percentage of luminescence for the luminescence (100%) of Orexin A (100 μM)
T1 sequence (O43614 1-444): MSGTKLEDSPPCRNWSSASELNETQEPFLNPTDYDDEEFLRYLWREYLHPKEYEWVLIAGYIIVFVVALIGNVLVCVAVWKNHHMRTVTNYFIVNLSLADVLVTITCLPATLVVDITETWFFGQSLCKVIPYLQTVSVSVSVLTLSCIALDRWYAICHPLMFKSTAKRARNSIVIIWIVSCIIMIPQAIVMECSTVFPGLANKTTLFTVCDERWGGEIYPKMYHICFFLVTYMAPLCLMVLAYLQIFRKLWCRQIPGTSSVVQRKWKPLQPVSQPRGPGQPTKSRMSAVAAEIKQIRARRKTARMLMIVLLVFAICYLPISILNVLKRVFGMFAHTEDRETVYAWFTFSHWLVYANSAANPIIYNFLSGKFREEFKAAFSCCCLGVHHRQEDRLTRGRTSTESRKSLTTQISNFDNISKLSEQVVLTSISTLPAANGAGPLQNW
Description: Human orexin receptor type 2 and apoaequorin were transiently expressed in CHO cells, and the agonist activity was evaluated based on intracellular calcium mobilization with ligand stimulation. The CHO cells transiently-expressed human orexin receptor type 2 and apoaequorin were seeded on a 384-well plate by 2,000 cells/well, and then incubated for 16-22 hours. After the plate was returned to room temperature, Coelenterazine hcp (final concentration: 1 μM) was added to the plate, and the plate was allowed to stand at room temperature for 2 hours. And then, Orexin A or each test compound was added to the plate, and the luminescence of the cells was measured with FDSS7000 (Hamamatsu Photonics K. K.), wherein Orexin A and each test compound were dissolved in DMSO (final concentration: 0.1%), and diluted with a buffer (Hanks, 20 mM HEPES, 0.1% BSA). The agonist activity of each test compound for orexin receptor type 2 was calculated as relative percentage of luminescence for the luminescence (100%) of Orexin A (100 μM).

Compound | Agonist Activity (%)
COc1cccc(C2=CCN(C(C)C)CC2)c1NC(=O)N1CCC(c2ccc(C)cc2)CC1 [Example 47, N-{2-methoxy-6-[1-(propan-2-yl)-1,2,3,6-tetrahydropyridin-4-yl]phenyl}-4-(4-methylphenyl)piperidine-1-carboxamide] | 165
CC(C)N1CCC(c2cccc(F)c2NC(=O)N2CCC(c3cc(C4CC4)on3)CC2)CC1 [Example 51, 4-(5-cyclopropyl-1,2-oxazol-3-yl)-N-{2-fluoro-6-[1-(propan-2-yl)piperidin-4-yl]phenyl}piperidine-1-carboxamide] | 151
CC(C)N1CCC(c2cccc(F)c2NC(=O)N2CCC(C)(c3cc(C4CC4)on3)CC2)CC1 [Example 53, 4-(5-cyclopropyl-1,2-oxazol-3-yl)-N-{2-fluoro-6-[1-(propan-2-yl)piperidin-4-yl]phenyl}-4-methylpiperidine-1-carboxamide] | 140
CC(C)N1CCN(c2cccc(F)c2NC(=O)N2CCC(C)(c3cc(C4CC4)on3)CC2)CC1 [Example 54, 4-(5-cyclopropyl-1,2-oxazol-3-yl)-N-{2-fluoro-6-[4-(propan-2-yl)piperazin-1-yl]phenyl}-4-methylpiperidine-1-carboxamide] | 140
CC(C)N1CC=C(c2cccc(F)c2NC(=O)N2CCC(C)(c3cc(C4CC4)on3)CC2)CC1 [Example 55, 4-(5-cyclopropyl-1,2-oxazol-3-yl)-N-{2-fluoro-6-[1-(propan-2-yl)-1,2,3,6-tetrahydropyridin-4-yl]phenyl}-4-methylpiperidine-1-carboxamide] | 154
CC(C)N1CCN(c2cccc(F)c2NC(=S)N2CCC(C)(c3noc(C4CC4)n3)CC2)CC1 [Example 57, 4-(5-cyclopropyl-1,2,4-oxadiazol-3-yl)-N-{2-fluoro-6-[4-(propan-2-yl)piperazin-1-yl]phenyl}-4-methylpiperidine-1-carbothioamide] | 171
Cc1ccc(C2CCN(C(=O)Nc3c(F)cccc3-c3cnn(C4CC4)c3)CC2)cc1 [Example 58, N-[2-(1-cyclopropyl-1H-pyrazol-4-yl)-6-fluoro-phenyl]-4-(4-methylphenyl)piperidine-1-carboxamide] | 71
CC(C)N1CCN(c2cccc(Cl)c2NC(=O)N2CCC(C)(c3cc(C4CC4)on3)CC2)CC1 [Example 61, N-{2-chloro-6-[4-(propan-2-yl)piperazin-1-yl]phenyl}-4-(5-cyclopropyl-1,2-oxazol-3-yl)-4-methylpiperidine-1-carboxamide] | 156
COc1cccc(CN2CCN(C(C)C)CC2)c1NC(=O)N1CCC(c2ccc(C)cc2)CC1 [Example 63, N-(2-methoxy-6-{[4-(propan-2-yl)piperazin-1-yl]methyl}phenyl)-4-(4-methylphenyl)piperidine-1-carboxamide] | 26
Cc1ccc(C2CCN(C(=S)Nc3c(F)cccc3N3CCN(C(C)C)CC3)CC2)cc1 [Example 64, N-{2-fluoro-6-[4-(propan-2-yl)piperazin-1-yl]phenyl}-4-(4-methylphenyl)piperidine-1-carbothioamide] | 140
CC(C)N1CCN(c2cccc(Cl)c2NC(=O)N2CCC(C)(c3nc4ccccc4o3)CC2)CC1 [Example 66, 4-(1,3-benzoxazol-2-yl)-N-{2-chloro-6-[4-(propan-2-yl)piperazin-1-yl]phenyl}-4-methylpiperidine-1-carboxamide] | 129
CC(C)N1CCN(c2cccc(Cl)c2NC(=O)N2CCC(C)(c3noc(C4CC4)n3)CC2)CC1 [Example 67, N-{2-chloro-6-[4-(propan-2-yl)piperazin-1-yl]phenyl}-4-(5-cyclopropyl-1,2,4-oxadiazol-3-yl)-4-methylpiperidine-1-carboxamide] | 154
CC(C)c1ccc(-c2cccc(Cl)c2NC(=O)N2CCC(C)(c3cc(C4CC4)on3)CC2)cn1 [Example 69, N-{2-chloro-6-[6-(propan-2-yl)pyridin-3-yl]phenyl}-4-(5-cyclopropyl-1,2-oxazol-3-yl)-4-methylpiperidine-1-carboxamide] | 129
CC1(c2cc(C3CC3)on2)CCN(C(=O)Nc2c(F)cccc2-c2ccc(C(F)(F)F)nc2)CC1.Cl [Example 71, 4-(5-cyclopropyl-1,2-oxazol-3-yl)-N-{2-fluoro-6-[6-(trifluoromethyl)pyridin-3-yl]phenyl}-4-mehylpiperidine-1-carboxamide hydrochloride] | 88
CC(C)c1ncc(-c2cccc(F)c2NC(=O)N2CCC(C)(c3noc(C4CC4)n3)CC2)cn1 [Example 72, 4-(5-cyclopropyl-1,2,4-oxadiazol-3-yl)-N-{2-fluoro-6-[2-(propan-2-yl)pyrimidin-5-yl]phenyl}-4-methylpiperidine-1-carboxamide] | 144
CC(C)N1CCN(c2cccc(F)c2NC(=O)N2CCC(C)(c3noc(C4CCCC4)n3)CC2)CC1 [Example 73, 4-(5-cyclopentyl-1,2,4-oxadiazol-3-yl)-N-{2-fluoro-6-[4-(propan-2-yl)piperazin-1-yl]phenyl}-4-methylpiperidine-1-carboxamide] | 141
CC(C)N1CCN(c2cccc(Cl)c2NC(=O)N2CCC(C)(c3noc(C4CCCC4)n3)CC2)CC1 [Example 74, N-{2-chloro-6-[4-(propan-2-yl)piperazin-1-yl]phenyl}-4-(5-cyclopentyl-1,2,4-oxadiazol-3-yl)-4-methylpiperidine-1-carboxamide] | 145

Now from value to compound:

Agonist Activity (%) | Compound
127 | CC(C)N1CCN(c2cccc(F)c2NC(=O)N2CCC(C)(c3noc(C4CC4)n3)CC2)CC1 [Example 45, 4-(5-cyclopropyl-1,2,4-oxadiazol-3-yl)-N-{2-fluoro-6-[4-(propan-2-yl)piperazin-1-yl]phenyl}-4-methylpiperidine-1-carboxamide]
49 | Cc1ccc(C2CCN(C(=O)Nc3c(F)cccc3N3CCN(C(C)C)CC3)CC2)nc1 [Example 46, N-{2-fluoro-6-[4-(propan-2-yl)piperazin-1-yl]phenyl}-4-(5-methylpyridin-2-yl)piperidine-1-carboxamide]
146 | COc1cccc(C2CCN(C(C)C)CC2)c1NC(=O)N1CCC(c2ccc(C)cc2)CC1 [Example 48, N-{2-methoxy-6-[1-(propan-2-yl)piperidin-4-yl]phenyl}-4-(4-methylphenyl)piperidine-1-carboxamide]
196 | CC(C)N1CCC(c2cccc(F)c2NC(=O)N2CCC(C)(c3nc4ccccc4o3)CC2)CC1 [Example 49, 4-(1,3-benzoxazol-2-yl)-N-{2-fluoro-6-[1-(propan-2-yl)piperidin-4-yl]phenyl}-4-methylpiperidine-1-carboxamide]
187 | CC(C)N1CC=C(c2cccc(F)c2NC(=O)N2CCC(C)(c3nc4ccccc4o3)CC2)CC1 [Example 50, 4-(1,3-benzoxazol-2-yl)-N-{2-fluoro-6-[1-(propan-2-yl)-1,2,3,6-tetrahydropyridin-4-yl]phenyl}-4-methylpiperidine-1-carboxamide]
155 | CC(C)N1CCN(c2cccc(F)c2NC(=O)N2CCC(c3cc(C4CC4)on3)CC2)CC1 [Example 52, 4-(5-cyclopropyl-1,2-oxazol-3-yl)-N-{2-fluoro-6-[4-(propan-2-yl)piperazin-1-yl]phenyl}piperidine-1-carboxamide]
44 | CC1(c2noc(C3CC3)n2)CCN(C(=O)Nc2c(F)cccc2C2=CCOCC2)CC1 [Example 56, 4-(5-cyclopropyl-1,2,4-oxadiazol-3-yl)-N-[2-(3,6-dihydro-2H-pyran-4-yl)-6-fluorophenyl]-4-methylpiperidine-1-carboxamide]
158 | CC(C)c1ccc(-c2cccc(F)c2NC(=O)N2CCC(C)(c3cc(C4CC4)on3)CC2)cn1 [Example 59, 4-(5-cyclopropyl-1,2-oxazol-3-yl)-N-{2-fluoro-6-[6-(propan-2-yl)pyridin-3-yl]phenyl}-4-methylpiperidine-1-carboxamide]
102 | CC(C)c1ccc(-c2cccc(F)c2NC(=O)N2CCC(C)(c3noc(C4CC4)n3)CC2)cn1 [Example 60, 4-(5-cyclopropyl-1,2,4-oxadiazol-3-yl)-N-{2-fluoro-6-[6-(propan-2-yl)pyridin-3-yl]phenyl}-4-methylpiperidine-1-carboxamide]
75 | Cc1ccc(C2CCN(C(=O)Nc3c(F)cccc3OC3CCN(C(C)C)CC3)CC2)cc1 [Example 62, N-(2-fluoro-6-{[1-(propan-2-yl)piperidin-4-yl]oxy}phenyl)-4-(4-methylphenyl)piperidine-1-carboxamide]
93 | CC(C)c1ccc(-c2cccc(F)c2NC(=O)N2CCC(C)(c3noc(C4CC4)n3)CC2)cc1 [Example 65, 4-(5-cyclopropyl-1,2,4-oxadiazol-3-yl)-N-[3-fluoro-4′-(propan-2-yl) [1,1′-biphenyl]-2-yl]-4-methylpiperidine-1-carboxamide]
68 | Cc1ccc(-c2cccc(F)c2NC(=O)N2CCC(C)(c3cc(C4CC4)on3)CC2)cn1 [Example 68, 4-(5-cyclopropyl-1,2-oxazol-3-yl)-N-[2-fluoro-6-(6-methylpyridin-3-yl)phenyl]-4-methylpiperidine-1-carboxamide]
